These results are taken from US20260365682A1, “MODULATORS OF TNF-ALPHA ACTIVITY” (Forward Therapeutics, Inc., priority 2022, published 2026).

The target in this assay is T1, TNF-α (Homo sapiens, UniProt P01375).
T1 construct: purchased R&D 210-TA-020/CF
The experiment in a line: TNF-α Induced HEK Blue Cellular Assay (secreted alkaline phosphatase expression, QUANTI-Blue). The assay is classed as cell-based. The note with it: HEK Blue TNFα reporter cells; TNF-α 100 μg/ml; 24 hrs at 37° C.; inhibition of secreted alkaline phosphatase; read-out: IC50 value. The method, boiled down: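 Compound was serially diluted from […] to 0.5 nM final, then incubated with 10,000 HEK Blue TNFα reporter cells per well and […] TNF-α for 24 h at 37° C. SEAP output was read by QUANTI-Blue absorbance at 620 nm. Inhibition was background-corrected against DMSO controls with and without stimulation, and IC50 was fitted with a 4-parameter logistic equation.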

T1 sequence (P01375 77-233 limits assumed): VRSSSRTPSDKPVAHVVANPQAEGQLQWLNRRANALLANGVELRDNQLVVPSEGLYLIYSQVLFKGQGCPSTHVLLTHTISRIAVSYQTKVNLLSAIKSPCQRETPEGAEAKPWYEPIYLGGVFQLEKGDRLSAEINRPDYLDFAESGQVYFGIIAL

In general, IC50 refers to the concentration that inhibits the measured activity by half. Consider `[2H]C([2H])([2H])N1C(=O)c2cccc(OC(F)F)c2[C@H]2C[C@@H]1c1nc3ccc(C#CC4(C)CN(C)C4)cc3n12` [Example 155, (7R,14R)-1-(difluoromethoxy)-11-((1,3-dimethylazetidin-3-yl)ethynyl)-6-(methyl-d3)-6,7-dihydro-7,14-methanobenzo[f]benzo[4,5]imidazo[1,2-a][1,4]diazocin-5(14H)-one], for which the IC50 was under 100 nM. Take `[2H]C([2H])([2H])N1C(=O)c2cccc(OC(F)F)c2[C@H]2C[C@@H]1c1nc3ccc(C#CC4(C)CN(C(=O)C(C)(C)O)C4)cc3n12` [Example 156, (7R,14R)-1-(difluoromethoxy)-11-((1-(2-hydroxy-2-methylpropanoyl)-3-methylazetidin-3-yl)ethynyl)-6-(methyl-d3)-6,7-dihydro-7,14-methanobenzo[f]benzo[4,5]imidazo[1,2-a][1,4]diazocin-5(14H)-one]: the IC50 lay in the range of 100 to 1000 nM. Take `[2H]C([2H])([2H])N1C(=O)c2cccc(OC(F)F)c2[C@H]2C[C@@H]1c1nc3ccc(C#CC4(C)CN(C(=O)C(C)(C)C#N)C4)cc3n12` [Example 157, 3-(3-(((7R,14R)-1-(difluoromethoxy)-6-(methyl-d3)-5-oxo-5,6,7,14-tetrahydro-7,14-methanobenzo[f]benzo[4,5]imidazo[1,2-a][1,4]diazocin-11-yl)ethynyl)-3-methylazetidin-1-yl)-2,2-dimethyl-3-oxopropanenitrile]: the 50% inhibitory concentration (IC50) lay within 100 to 1000 nM. Take `[2H]C([2H])([2H])N1C(=O)c2cccc(OC(F)F)c2[C@H]2C[C@@H]1c1nc3ccc(C#CC4(C)CNC4)cc3n12` [Example 158, (7R,14R)-1-(difluoromethoxy)-6-(methyl-d3)-11-((3-methylazetidin-3-yl)ethynyl)-6,7-dihydro-7,14-methanobenzo[f]benzo[4,5]imidazo[1,2-a][1,4]diazocin-5(14H)-one]: the IC50 was under 100 nM. As to `[2H]C([2H])([2H])N1C(=O)c2cccc(OC(F)F)c2[C@H]2C[C@@H]1c1nc3ccc(C#CC4CC(C)(C#N)C4)cc3n12` (stereo partly drawn) [Example 159, 3-(((7R,14R)-1-(difluoromethoxy)-6-(methyl-d3)-5-oxo-5,6,7,14-tetrahydro-7,14-methanobenzo[f]benzo[4,5]imidazo[1,2-a][1,4]diazocin-11-yl)ethynyl)-1-methylcyclobutane-1-carbonitrile], the IC50 is under 100 nM. For `[2H]C([2H])([2H])N1C(=O)c2cccc(OC(F)F)c2[C@H]2C[C@@H]1c1nc3ccc(C#CCOCC(F)(F)F)cc3n12` [Example 160, (7R,14R)-1-(difluoromethoxy)-6-(methyl-d3)-11-(3-(2,2,2-trifluoroethoxy)prop-1-yn-1-yl)-6,7-dihydro-7,14-methanobenzo[f]benzo[4,5]imidazo[1,2-a][1,4]diazocin-5(14H)-one], the IC50 was under 100 nM. In the case of `[2H]C([2H])([2H])N1C(=O)c2cccc(OC(F)F)c2[C@H]2C[C@@H]1c1nc3ccc(C#CC4(C)CN(C(=O)C5CC5)C4)cc3n12` [Example 161, (7R,14R)-11-((1-(cyclopropanecarbonyl)-3-methylazetidin-3-yl)ethynyl)-1-(difluoromethoxy)-6-(methyl-d3)-6,7-dihydro-7,14-methanobenzo[f]benzo[4,5]imidazo[1,2-a][1,4]diazocin-5(14H)-one], the half-inhibitory concentration (IC50) is under 100 nM.

Turning to `[2H]C([2H])([2H])N1C(=O)c2cccc(OC(F)F)c2[C@H]2C[C@@H]1c1nc3ccc(C#CC4(C)CN(S(C)(=O)=O)C4)cc3n12` [Example 162, (7R,14R)-1-(difluoromethoxy)-6-(methyl-d3)-11-((3-methyl-1-(methylsulfonyl)azetidin-3-yl)ethynyl)-6,7-dihydro-7,14-methanobenzo[f]benzo[4,5]imidazo[1,2-a][1,4]diazocin-5(14H)-one], the IC50 is under 100 nM. With `[2H]C([2H])([2H])N1C(=O)c2cccc(OC(F)F)c2[C@H]2C[C@@H]1c1nc3ccc(C#CCCN(C)C)cc3n12` [Example 163, (7R,14R)-1-(difluoromethoxy)-11-(4-(dimethylamino)but-1-yn-1-yl)-6-(methyl-d3)-6,7-dihydro-7,14-methanobenzo[f]benzo[4,5]imidazo[1,2-a][1,4]diazocin-5(14H)-one], the IC50 lay in the range of 100 to 1000 nM. As to `[2H]C([2H])([2H])N1C(=O)c2cccc(OC(F)F)c2[C@H]2C[C@@H]1c1nc3ccc(C#CC4(C)CN(CCO)C4)cc3n12` [Example 164, (7R,14R)-1-(difluoromethoxy)-11-((1-(2-hydroxyethyl)-3-methylazetidin-3-yl)ethynyl)-6-(methyl-d3)-6,7-dihydro-7,14-methanobenzo[f]benzo[4,5]imidazo[1,2-a][1,4]diazocin-5(14H)-one], the IC50 was in the range of 100 to 1000 nM.

Turning to `[2H]C([2H])([2H])N1C(=O)c2cccc(OC(F)F)c2[C@H]2C[C@@H]1c1nc3ccc(C#CC4(C)CN(C(=O)C5(C)CC5)C4)cc3n12` [Example 165, (7R,14R)-1-(difluoromethoxy)-6-(methyl-d3)-11-((3-methyl-1-(1-methylcyclopropane-1-carbonyl)azetidin-3-yl)ethynyl)-6,7-dihydro-7,14-methanobenzo[f]benzo[4,5]imidazo[1,2-a][1,4]diazocin-5(14H)-one], the half-maximal inhibitory concentration (IC50) was in the range of 100 to 1000 nM. The same measure for `[2H]C([2H])([2H])N1C(=O)c2cccc(OC(F)F)c2[C@H]2C[C@@H]1c1nc3ccc(C#CC4CN(C(=O)C5(C)CC5)C4)cc3n12` [Example 166, (7R,14R)-1-(difluoromethoxy)-6-(methyl-d3)-11-((1-(1-methylcyclopropane-1-carbonyl)azetidin-3-yl)ethynyl)-6,7-dihydro-7,14-methanobenzo[f]benzo[4,5]imidazo[1,2-a][1,4]diazocin-5(14H)-one]: under 100 nM. Regarding `[2H]C([2H])([2H])N1C(=O)c2cccc(OC(F)F)c2[C@H]2C[C@@H]1c1nc3ccc(C#CC4(C)CN(C(=O)C(C)(C)C)C4)cc3n12` [Example 167, (7R,14R)-1-(difluoromethoxy)-6-(methyl-d3)-11-((3-methyl-1-pivaloylazetidin-3-yl)ethynyl)-6,7-dihydro-7,14-methanobenzo[f]benzo[4,5]imidazo[1,2-a][1,4]diazocin-5(14H)-one], the concentration for half-maximal inhibition (IC50) was under 100 nM. Take `[2H]C([2H])([2H])N1C(=O)c2cccc(OC(F)F)c2[C@H]2C[C@@H]1c1nc3ccc(C#CC4CC4)c(F)c3n12` [Example 168, (7R,14R)-11-(cyclopropylethynyl)-1-(difluoromethoxy)-12-fluoro-6-(methyl-d3)-6,7-dihydro-7,14-methanobenzo[f]benzo[4,5]imidazo[1,2-a][1,4]diazocin-5(14H)-one]: the IC50 lay within 100 to 1000 nM. The same measure for `[2H]C([2H])([2H])N1C(=O)c2cccc(OC(F)F)c2[C@H]2C[C@@H]1c1nc3ccc(C#C[C@H](C)O)cc3n12` [Example 169, (7R,14R)-1-(difluoromethoxy)-11-((S)-3-hydroxybut-1-yn-1-yl)-6-(methyl-d3)-6,7-dihydro-7,14-methanobenzo[f]benzo[4,5]imidazo[1,2-a][1,4]diazocin-5(14H)-one]: 100 to 1000 nM; for `[2H]C([2H])([2H])N1C(=O)c2cccc(OC(F)F)c2[C@H]2C[C@@H]1c1nc3ccc(C#CC)c(F)c3n12` [Example 170, (7R,14R)-1-(difluoromethoxy)-12-fluoro-6-(methyl-d3)-11-(prop-1-yn-1-yl)-6,7-dihydro-7,14-methanobenzo[f]benzo[4,5]imidazo[1,2-a][1,4]diazocin-5(14H)-one]: under 100 nM; for `[2H]C([2H])([2H])N1C(=O)c2cccc(OC(F)F)c2[C@H]2C[C@@H]1c1nc3ccc(C#CCNC(=O)C4CC4)cc3n12` [Example 171, N-(3-((7R,14R)-1-(difluoromethoxy)-6-(methyl-d3)-5-oxo-5,6,7,14-tetrahydro-7,14-methanobenzo[f]benzo[4,5]imidazo[1,2-a][1,4]diazocin-11-yl)prop-2-yn-1-yl)cyclopropanecarboxamide]: under 100 nM. As to `[2H]C([2H])([2H])N1C(=O)c2cccc(OC(F)F)c2[C@H]2C[C@@H]1c1nc3ccc(C#CCCl)cc3n12` [Example 172, (7R,14R)-11-(3-chloroprop-1-yn-1-yl)-1-(difluoromethoxy)-6-(methyl-d3)-6,7-dihydro-7,14-methanobenzo[f]benzo[4,5]imidazo[1,2-a][1,4]diazocin-5(14H)-one], the IC50 was under 100 nM.

With `[2H]C([2H])([2H])N1C(=O)c2cccc(OC(F)F)c2[C@H]2C[C@@H]1c1nc3ccc(C#CC4CCN(C(C)=O)CC4)cc3n12` [Example 173, (7R,14R)-11-((1-acetylpiperidin-4-yl)ethynyl)-1-(difluoromethoxy)-6-(methyl-d3)-6,7-dihydro-7,14-methanobenzo[f]benzo[4,5]imidazo[1,2-a][1,4]diazocin-5(14H)-one], the concentration for half-maximal inhibition (IC50) is under 100 nM. Turning to `[2H]C([2H])([2H])N1C(=O)c2cccc(OC(F)F)c2[C@H]2C[C@@H]1c1nc3ccc(C#CC4CCN(C(=O)C5CC5)CC4)cc3n12` [Example 174, (7R,14R)-11-((1-(cyclopropanecarbonyl)piperidin-4-yl)ethynyl)-1-(difluoromethoxy)-6-(methyl-d3)-6,7-dihydro-7,14-methanobenzo[f]benzo[4,5]imidazo[1,2-a][1,4]diazocin-5(14H)-one], the IC50 is under 100 nM.

On to `[2H]C([2H])([2H])N1C(=O)c2cccc(OC(F)F)c2[C@H]2C[C@@H]1c1nc3c(F)cc(C#CC4CC4)cc3n12` [Example 175, (7R,14R)-11-(cyclopropylethynyl)-1-(difluoromethoxy)-9-fluoro-6-(methyl-d3)-6,7-dihydro-7,14-methanobenzo[f]benzo[4,5]imidazo[1,2-a][1,4]diazocin-5(14H)-one], for which the IC50 was under 100 nM.
